The target in one data set is T1, bovine trypsin (Bos taurus, UniProt P00760).
T1 construct: purchased Sigma Aldrich; host or cells: bovine pancreas
T1 sequence (P00760 24-246): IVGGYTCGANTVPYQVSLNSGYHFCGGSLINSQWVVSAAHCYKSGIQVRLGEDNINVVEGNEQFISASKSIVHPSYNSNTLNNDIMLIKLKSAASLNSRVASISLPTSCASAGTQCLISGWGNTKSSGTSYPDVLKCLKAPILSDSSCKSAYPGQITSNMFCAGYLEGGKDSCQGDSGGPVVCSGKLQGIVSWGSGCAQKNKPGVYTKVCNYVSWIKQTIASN
Kind of data set: Fluorescence anisotropy titration of fluorescein-labelled ODNs with increasing trypsin. Conditions: for change of trypsin affinity on lowering salt to 5 mM KCl, 25 mM Hepes, pH 7.4: low salt versus high salt; for Kd: preformed quadruplex, 2 nM ODN. Type of data set: binding. As to the method: The next step was to determine whether the intramolecular quadruplex conformation of AC 1 leads to enhanced affinity towards trypsin as a result of bidentate binding (FIG. 15, pathway A). […] AC 1 and ODNs 2 through 4 were first incubated in the presence of potassium cations to induce the quadruplex fold. The preformed quadruplexes were then incubated with increasing concentrations of trypsin at 25° C. (25 mM KCl, 200 mM NaCl, 25 mM Hepes, pH 7.4) for 30 min. Preliminary fluorescence anisotropy studies were conducted to ascertain that equilibrium was reached after 30 min and that there was no significant quenching of the fluorescein emission. The anisotropy associated with the fluorescein emission was followed at 525 nm (excitation at 495 nm). The resultant binding isotherms (FIG. 14) were fitted using non-linear regression to a 1:1 binding stoichiometry. […] In fact, the dissociation constant was determined to be 8.1×10^−7 M, a value that indicates a greater than 100 and 30 fold binding enhancement when compared to monodentate controls ODN 3 and ODN 2, respectively. […] This dissociation constant is attributed to non-specific interactions between bovine trypsin and ODN 4, since trypsin (pI=10.5) is positively charged at pH=7.4 and thus can potentially associate with the negatively charged DNA backbone. Support for such non-specific interactions comes from incubation of trypsin with ODN 4 where the concentration of salts were decreased to only 5 mM KCl, 25 mM Hepes, pH 7.4 (see, e.g., FIG. 23).
Immediately prior to each fluorescence polarization experiment, fresh stock solutions of trypsin were made in Hepes buffer (20 mM KCl, 200 mM NaCl, 25 mM Hepes, pH 7.4). Concentration of the trypsin in the stock solutions were determined using ultra-violet absorbance at 280 nm (ε=37669 M^−1cm^−1). Serial dilutions from the stock solution of trypsin were made into eppendorf tubes (spanning a range from 1×10^−9 to 1×10^−3M). To these trypsin-containing tubes were added aliquots of ODNs, such that the total concentration of ODNs in each eppendorf tube was 2 nM. After gently agitating, 150 uL from each eppendorf was transferred to respective borosilicate glass culture tubes and the tubes were allowed to equilibrate for 30 minutes at 25° C. (preliminary fluorescence anisotropy studies were conducted to ascertain that equilibrium was reached after 30 min and that there was no significant quenching of the fluorescein emission). Fluorescence polarization at 25° C. was determined on a Molecular Probes Beacon 2000 Fluorescence Polarization Instrument, using 495 and 525 nm narrow band pass filters for excitation and emission, respectively. Values of millipolarization (mP) from the Beacon 2000 were converted to millianisotropy (mA) using equation 1, where A is the anisotropy value, and P is the observed polarization.
1:1 (trypsin:ODN) binding mode: Anisotropy was plotted against trypsin (receptor protein) concentration and fitted to Equation 2 (a single-site model without receptor depletion), wherein Af is the anisotropy of the unbound ODN, Ab is the anisotropy of the bound ODN, Or is the total added ODN concentration (in M units), and Kd is the dissociation constant. Non-linear regression analysis using Origin 8.0 software was used for fitting the experimental data.
Cooperative binding mode: Binding equilibrium best described as cooperative binding was fitted to the Hill equation (Equation 3), where the fluorescence quantum yield of fluorescein is constant and the ODN substrate is limiting. R is the total protein concentration, R1/2 (or [trypsin]1/2) is the protein concentration required for half-maximal binding, and h is the Hill coefficient.

A further data set has as its target thrombin (Homo sapiens, UniProt P00734). Conditions: literature; cited from earlier work.
The target of the next data set is T2, streptavidin (Streptomyces avidinii, UniProt P22629).
T2 construct: purchased Thermo Fisher Scientific (NUNC)
T2 sequence (P22629 25-183): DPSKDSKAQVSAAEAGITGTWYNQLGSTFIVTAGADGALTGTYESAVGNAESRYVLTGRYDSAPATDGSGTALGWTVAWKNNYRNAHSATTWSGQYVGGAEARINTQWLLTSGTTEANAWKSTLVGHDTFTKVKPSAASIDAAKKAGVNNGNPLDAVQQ
Kind of data set: Streptavidin-immobilized microplate assay, hemin/H2O2 oxidation of ABTS, absorbance at 414 nm. Conditions: 5 μM ODN with 5 μM hemin, 1 h incubation, washed, ABTS 2 mM. On the procedure:
As shown schematically in FIG. 28, streptavidin-immobilized, NUNC 96 well microplates were obtained from Thermo Fisher Scientific. Each well was pre-washed three times with 100 μL of PBS buffer (20 mM NaH2PO4, 30 mM Na2HPO4, 100 mM NaCl, pH 7.4). To each well, 100 μL of sample ODNs (5 μM, previously annealed from 95° C.) with hemin (5 μM) in Hepes buffer (50 mM HEPES, 20 mM KCl, 200 mM NaCl, 1% DMSO, 0.05% Triton X-100, pH 8.0) was incubated for one hour with gentle agitation. Sample ODN solutions were then removed by inversion, and each well washed three times with PBS buffer. Plate wells were then refilled with 98.5 μL of the Hepes buffer containing ABTS (2,2′-azino-bis(3-ethylbenzthiazoline-6-sulphonic acid)). Hydrogen peroxide (2 mM) was then introduced to each well bringing the total assay volume to 100 μL and total ABTS concentration to 2 mM. Visible light absorbance at 414 nm was then immediately followed on a Molecular Devices SpectraMax 190 microplate reader (FIG. 27).

Setting [1] is: 5 mM KCl, 25 mM Hepes, pH 7.4, read-out: dissociation constant (Kd) for trypsin, low-salt conditions.
The mark [2] stands for this setting: high salt (20 or 25 mM KCl, 200 mM NaCl, 25 mM Hepes, pH 7.4), 25° C., 1:1 fit, read-out: dissociation constant (Kd) for trypsin.

Read-outs that look alike come from different tables or passages of the source. A value given as a limit tells only on which side of the number the result lay.

The term Kd denotes the concentration at which binding is half-saturated.

“AC 1 (TTGGTTGGTGTGGTTGGT; 5' dT fluorescein conjugate, ba and ipt arms attached, further chemistry not given here)”: the “potency of quadruplex form in binding trypsin relative to double helical structure (duplex 1:5)” value in the data set with bovine trypsin (Kd of quadruplex versus [trypsin]1/2 of duplex) is recorded as “about 20 times”. The “change of trypsin affinity on lowering salt to 5 mM KCl, 25 mM Hepes, pH 7.4” value in the data set with bovine trypsin is on record as “only slight change in affinity”. For the same substance, in the data set with bovine trypsin (setting [1]), the dissociation constant (Kd) amounted to 2.8 µM. Further, the Kd with bovine trypsin (setting [2]) turned out to be 0.81 µM. Also, in the data set with bovine trypsin (ratio of Kd values, high salt), the “binding enhancement compared to monodentate control ODN 2” value is over 30 fold and the “binding enhancement compared to monodentate control ODN 3” value was “greater than 100 fold”.

Turning to “thrombin binding aptamer: core sequence 5′-GGTTGGTGTGGTTGG-3′ (SEQ ID NO:6)”, the “dissociation constant (Kd) of complex with thrombin” value with thrombin is “micromolar range”.

In the case of “ODN 3 (TTGGTTGGTGTGGTTGGT; 3' ipt arm attached, fluorescein-dT conjugate, further chemistry not given here)”, the Kd with bovine trypsin (setting [2]) stood at 90 µM.

“ODN 4: 5′-TTGGTTGGTGTGGTTGGT-3′, no arms, 5′ terminal dT bearing fluorescein; negative control (listed as DNA, chemistry not fully specified)”: the “change of trypsin affinity on lowering salt to 5 mM KCl, 25 mM Hepes, pH 7.4” value with bovine trypsin is listed as “significant decrease in the Kd”. Besides, the dissociation constant Kd was 31 µM in the data set with bovine trypsin (setting [1]) and 2900 µM in the data set with bovine trypsin (setting [2]).

For “AC-X1: hemin binding aptamer core (SEQ ID NO:9) with biotin as small molecule handle for streptavidin (TGGGTAGGGCGGGTTGGGT; DNA, backbone and methylation of C not given here; biotin tethered via linker)”, the “absorbance change at 414 nm versus control HBA well” value in the data set with streptavidin is recorded as “greater absorbance change”.

Take “ODN 2 (TTGGTTGGTGTGGTTGGT; 5' ba arm attached, fluorescein-dT conjugate, further chemistry not given here)”: the dissociation constant (Kd) in the data set with bovine trypsin (setting [2]) was 29 µM.

(Values after patent US8877908B2, “Stimulus-responsive apta chelamers” (The Administrators of the Tulane Educational Fund, priority 2008, dated 2014).)
